Source: PubChem BioAssay (NCI)
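Test compounds were applied to cells in 96-well plates for 48 hours at 5 doses. Here, GI50 denotes the concentration required for 50% inhibition of growth. TGI denotes the concentration required for complete inhibition of growth.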

Key:
Assay in all cases: NCI-60 cell line screen, 48 h
HL-60(TB) leukemia = system: HL-60(TB) leukemia
SNB-19 CNS = system: SNB-19 CNS
OVCAR-4 ovarian = system: OVCAR-4 ovarian
SK-MEL-2 melanoma = system: SK-MEL-2 melanoma
EKVX NSCLC = system: EKVX NSCLC
HCT-116 colon = system: HCT-116 colon
SK-OV-3 ovarian = system: SK-OV-3 ovarian
NCI/ADR-RES ovarian = system: NCI/ADR-RES ovarian
DU-145 prostate = system: DU-145 prostate
T-47D breast = system: T-47D breast

Structure (SMILES)	TGI (HL-60(TB) leukemia) [µM]	TGI (SNB-19 CNS) [µM]	TGI (OVCAR-4 ovarian) [µM]	TGI (SK-MEL-2 melanoma) [µM]	TGI (EKVX NSCLC) [µM]	TGI (HCT-116 colon) [µM]	TGI (SK-OV-3 ovarian) [µM]	GI50 (HL-60(TB) leukemia) [µM]	GI50 (NCI/ADR-RES ovarian) [µM]	TGI (NCI/ADR-RES ovarian) [µM]	GI50 (DU-145 prostate) [µM]	TGI (DU-145 prostate) [µM]	GI50 (SK-OV-3 ovarian) [µM]	GI50 (T-47D breast) [µM]	TGI (T-47D breast) [µM]	GI50 (SNB-19 CNS) [µM]	GI50 (OVCAR-4 ovarian) [µM]	GI50 (SK-MEL-2 melanoma) [µM]	GI50 (HCT-116 colon) [µM]	GI50 (EKVX NSCLC) [µM]
CN(C)CCC1(C2=CCCC2)CC/C(=C\c2ccc3c(c2)OCO3)C1=O (stereo not given)	37	43.5	27.1	31.6	29.3	26.9	–	–	–	–	–	–	–	–	–	–	–	–	–	–
COc1nc(OC)c2c(=O)oc(-c3ccccc3)cc2n1	–	> 100	> 100	> 100	> 100	> 100	> 100	–	–	–	–	–	–	–	–	–	–	–	–	–
COc1cc(-c2c3c(cn2S(=O)(=O)c2ccccc2)-c2nc(N)sc2CC3)cc(OC)c1OC	4.32	> 100	32.3	12.7	–	21.3	9.77	0.385	0.612	> 100	1.54	41.9	1.17	0.433	20.6	11	2.04	0.596	0.515	–
CCCCCCC1CCC2CCCC(C)N12 (stereo not given)	38.2	> 100	> 100	69.2	> 100	> 100	–	–	–	–	–	–	–	–	–	–	–	–	–	–
O=C1OCC(c2ccc(O)c(O)c2)=C1c1cc(O)c(O)c(O)c1	–	> 100	70.1	–	> 100	35.5	–	–	0.0297	18.8	32.7	> 100	–	23.2	60.2	25.3	26.2	–	18.1	70.6
O=C(Cc1ccccc1)Oc1ccc2c(-c3ccccc3)c(C(=O)Nc3ccc(Cl)cc3)c(=O)oc2c1	> 100	> 100	> 100	–	> 100	> 100	> 100	–	–	–	–	–	–	–	–	–	–	–	–	–
COc1ccc(-c2cc(C(=O)Nc3cccc(C(F)(F)F)c3)[nH]c(=S)n2)cc1	> 100	> 100	> 100	> 100	> 100	> 100	> 100	–	–	–	–	–	–	–	–	–	–	–	–	–
CC(NC(=O)c1ccccc1)C(=O)N(Cc1ccccc1)Cc1ccccc1 (stereo not given)	–	> 100	95.3	56.3	–	66	> 100	–	–	–	–	–	–	–	–	–	–	–	–	–
O=c1cc2n(c(=O)[nH]1)C1OC(C(O)C1O)[C@@H]2CCO (stereo not given in full)	> 100	> 100	> 100	> 100	> 100	–	> 100	–	–	–	–	–	–	–	–	–	–	–	–	–
COC(=O)c1cnc2nc(N3CCOCC3)[nH]n2c1=O	> 100	> 100	> 100	> 100	> 100	> 100	> 100	–	–	–	–	–	–	–	–	–	–	–	–	–
CS(=O)(=O)C1S(=O)(=O)OCCOS1(=O)=O	> 100	> 100	> 100	–	> 100	> 100	> 100	–	–	–	–	–	–	–	–	–	–	–	–	–
CN(C)CCNC(=O)c1ccc2ccc3cccnc3c2n1	> 84	> 93	> 69.2	29.3	48.3	27.2	> 100	–	–	–	–	–	–	–	–	–	–	–	–	–
CCCCN(CC)C(=O)C(=O)C1C(=O)Nc2ccccc2S1=O (stereo not given)	–	> 100	> 100	> 100	> 100	> 100	> 100	–	–	–	–	–	–	–	–	–	–	–	–	–
Cc1cccc(C)c1NC(=O)CCC(=O)NNC(=O)c1cc(O)c2ccccc2c1	95.2	> 100	–	–	> 100	> 100	> 100	–	–	–	–	–	–	–	–	–	–	–	–	–
